# Source: patent US20120196915A1, “Antitumor 1,2-Diphenylpyrrole Compounds and their Preparation Process” (ARGON PHARMA, S.L., priority 2009, published 2012)
# Experiments:
# LS174T cell line = experiment: Cell viability assay (XTT), LS174T; type: cell-based, human; settings: 4 h exposure, 20, 40 or 60 μM, in comparison with the comparative compound
# Method: (§1) H-727 and H-460 cell lines, derived from human lung carcinoma, and human prostate carcinoma PC3 cells, were cultured in RPMI 1640 medium supplemented with 10% fetal bovine serum, 1% glutamine and 100 units/ml penicillin/streptomycin (Life Technologies, Inc.). LS174T cells, derived from human colorectal carcinoma, and CAL51 cells, from breast carcinoma, were cultured in DMEM medium supplemented with 10% fetal bovine serum, 1% glutamine and 100 units/ml penicillin/streptomycin (Life Technologies, Inc.). All cell lines were incubated at 37° C. in a humidified atmosphere containing 5% CO2. The stock solution of each compound was reconstituted in DMSO and diluted in culture media before use.
# (§2) Antitumor activity was evaluated measuring cell metabolic capacity (viability), using the Cell Proliferation Kit II (XTT) and following the recommendations of the manufacturer (Roche Diagnostics). The assays were carried out in triplicates, with controls containing unexposed cells, cells with vehicle, or media plus compound. Cells were seeded into 96-well plates in 100 μl of media and incubated for 24 h. […] After 4 h of incubation at 37° C., the absorbance at 490 nm was read. The growth inhibitory activity was obtained subtracting the absorbance of the blanks and expressed as percentage of cell growth inhibition, as compared with untreated controls.
# CAL51 cell line = experiment: Cell viability assay (XTT), CAL51; type: cell-based; settings: CAL51, 4 h exposure, 20, 40 or 60 μM, in comparison with the comparative compound
# Method: as §1, §2
# H-460 cell line = experiment: Cell viability assay (XTT), H-460; type: cell-based, human; settings: H-460, 4 h exposure, 20, 40 or 60 μM, in comparison with the comparative compound
# Method: as §1, §2
# H-727 cell line = experiment: Cell viability assay (XTT), H-727; type: cell-based, human
# Method: as §1, §2
# PC3 cell line = experiment: Cell viability assay (XTT), PC3; type: cell-based, human; settings: PC3, 4 h exposure, 20, 40 or 60 μM, in comparison with the comparative compound
# Method: as §1, §2
structure (smiles),measurement,setting,value
"NS(=O)(=O)c1ccc(-n2cc(C(F)(F)F)cc2-c2cc(C(F)(F)F)cc(C(F)(F)F)c2)cc1 [Example 2, 4-[2-(3,5-Bis(trifluoromethyl)phenyl)-4-(trifluoromethyl)-1H-pyrrol-1-yl]benzenesulfonamide]",tumor cell viability,LS174T cell line,significantly reduced tumor cell viability
same,tumor cell viability,CAL51 cell line,significantly reduced tumor cell viability
same,tumor cell viability,H-460 cell line,significantly reduced tumor cell viability
same,tumor cell viability,"H-727 cell line; H-727, 4 h exposure, 20, 40 or 60 μM, in comparison with the comparative compound",significantly reduced tumor cell viability
same,reduction in the tumor cell viability percentage,"H-727 cell line; H-727, at 40 μm, 4 h, as compared to the comparative example",more than 50%
same,tumor cell viability,PC3 cell line,significantly reduced tumor cell viability
